Source: publication PMC6105598, “Targeting protein-protein interactions for therapeutic discovery via FRET-based high-throughput screening in living cells” (Scientific Reports, 2018)

Tests used:
[1] = molecular target: SERCA2a-PLB complex (GFP-SERCA2a / RFP-PLB in HEK293 cells) (Homo sapiens, UniProt P16615+P26678, C36A/C41F/C46A); assay: FRET of SERCA2a-PLB biosensor in saponin-permeabilized cells at low and high Ca; conditions: 100 nM Tg, low Ca (100 nM) vs high Ca (10 µM)
Description: To test this, we quantified FRET changes in permeabilized cells under conditions of low Ca (100 nM) and high Ca (10 µM).
(a) Left- FLT measurements in saponin-permeabilized cells under conditions of low Ca (100 nM) and high Ca (10 µM), and in the absence and presence (100 nM) of the SERCA inhibitor thapsigargin (Tg). […] Error bars indicate SD (n = 3). Statistical differences determined using 1-way ANOVA followed by Tukey post hoc analysis (more detailed analysis is provided in Supplemental Table 4). *P ≤ 0.01 and N.S. indicating P ≥ 0.05.
To generate SERCA2a-PLB biosensor, HEK293 cells were transiently transfected using Lipofectamine 3000 with GFP-SERCA2a and RFP-PLB in a 1:7 molar ratio for the screen. Cells were then assayed 48 hours post-transfection. For cell permeabilization experiments, cells were trypsinized (TrypLE, Thermo Fischer Scientific), PBS-washed (three times), and resuspended in a homogenization buffer (20 mM MOPS, 0.5 MgCl2, protease inhibitor cocktail (Roche, Basel, Switzerland)). Saponin (Sigma-Aldrich) was added to a final concentration of 10 µg/mL and cells were incubated for 4 min at 37 °C water bath. Saponin was removed by centrifugation for 3 min, cells were washed twice with homogenization buffer, and resuspended in homogenization buffer.

[2] = molecular target: T1, skeletal SR (SERCA1a only) (Oryctolagus cuniculus, UniProt P04191); assay: Ca-ATPase activity of skeletal SR (SSR), NADH-linked enzyme-coupled assay; type: biochemical, rabbit
T1 construct: Skeletal muscle SR membrane vesicles were isolated from longissimus dorsi obtained from New Zealand white rabbits; from tissue; host or cells: rabbit longissimus dorsi skeletal muscle, SR membrane vesicles
Description: To further examine the functional effects of Hit compounds, Ca-ATPase assays were performed on both skeletal SR (SERCA1a only) and cardiac SR (SERCA2a + PLB) at a series of Ca concentrations ranging from pCa 5 to 8.
Skeletal muscle SR membrane vesicles were isolated from longissimus dorsi obtained from New Zealand white rabbits, as previously described. Cardiac SR membrane vesicles were isolated from ventricular myocardium obtained from fresh pig hearts. All experimental protocols were reviewed and approved by University of Minnesota’s Institutional Animal Care and Use Committee, an Association for Assessment and Accreditation of Laboratory Animal Care institution.
An enzyme-coupled, NADH-linked ATPase assay was used to measure SERCA ATPase activity in 96-well microplates. Each well contained 0.8 μg (skeletal) or 2 μg (cardiac) of SR vesicles adjusted for the different SERCA contents of skeletal and cardiac SR, 50 mM MOPS (pH 7.0), 100 mM KCl, 5 mM MgCl2, 1 mM EGTA, 0.2 mM NADH, 1 mM phosphoenol pyruvate, 10 IU/mL of pyruvate kinase, 10 IU/mL of lactate dehydrogenase, 3.5 μg/mL of the Ca ionophore A23187, and CaCl2 added to set free [Ca] to the desired values. The assay was started upon the addition of ATP at a final concentration of 5 mM and read in a SpectraMax Plus microplate spectrophotometer rom Molecular Devices (Sunnyvale, CA).

[3] = system: skeletal muscle SR Ca-ATPase; parameters: method as in PMID 12022919; conditions: high concentrations (50 µM); cited from earlier work

T1 sequence (P04191 1-994 isoform P04191-2): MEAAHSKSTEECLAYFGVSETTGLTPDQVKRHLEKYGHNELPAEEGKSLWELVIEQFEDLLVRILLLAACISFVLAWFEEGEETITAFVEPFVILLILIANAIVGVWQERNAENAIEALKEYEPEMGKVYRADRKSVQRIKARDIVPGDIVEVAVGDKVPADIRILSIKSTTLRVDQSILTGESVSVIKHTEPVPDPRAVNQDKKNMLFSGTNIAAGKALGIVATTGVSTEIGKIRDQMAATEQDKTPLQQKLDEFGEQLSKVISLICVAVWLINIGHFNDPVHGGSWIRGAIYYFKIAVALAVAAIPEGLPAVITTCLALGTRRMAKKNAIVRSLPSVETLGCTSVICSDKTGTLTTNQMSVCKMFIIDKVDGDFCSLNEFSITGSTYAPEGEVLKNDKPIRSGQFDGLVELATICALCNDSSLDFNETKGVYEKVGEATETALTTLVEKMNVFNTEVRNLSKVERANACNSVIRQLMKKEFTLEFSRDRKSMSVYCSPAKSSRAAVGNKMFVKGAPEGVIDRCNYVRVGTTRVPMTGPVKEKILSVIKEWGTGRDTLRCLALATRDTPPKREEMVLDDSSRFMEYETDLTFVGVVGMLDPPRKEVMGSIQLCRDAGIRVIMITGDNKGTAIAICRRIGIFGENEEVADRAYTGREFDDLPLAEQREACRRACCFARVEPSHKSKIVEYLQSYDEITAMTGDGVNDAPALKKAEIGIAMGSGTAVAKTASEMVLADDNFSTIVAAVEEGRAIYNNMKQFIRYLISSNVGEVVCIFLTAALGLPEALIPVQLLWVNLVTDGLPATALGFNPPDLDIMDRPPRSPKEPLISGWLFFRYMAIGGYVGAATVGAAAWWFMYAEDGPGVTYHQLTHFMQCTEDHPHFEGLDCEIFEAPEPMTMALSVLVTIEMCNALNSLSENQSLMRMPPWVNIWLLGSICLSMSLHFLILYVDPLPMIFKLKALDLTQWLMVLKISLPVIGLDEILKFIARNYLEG
Chain of SERCA2a-PLB complex (GFP-SERCA2a / RFP-PLB in HEK293 cells) (P16615 1-997 isoform P16615-2, stated change not applied): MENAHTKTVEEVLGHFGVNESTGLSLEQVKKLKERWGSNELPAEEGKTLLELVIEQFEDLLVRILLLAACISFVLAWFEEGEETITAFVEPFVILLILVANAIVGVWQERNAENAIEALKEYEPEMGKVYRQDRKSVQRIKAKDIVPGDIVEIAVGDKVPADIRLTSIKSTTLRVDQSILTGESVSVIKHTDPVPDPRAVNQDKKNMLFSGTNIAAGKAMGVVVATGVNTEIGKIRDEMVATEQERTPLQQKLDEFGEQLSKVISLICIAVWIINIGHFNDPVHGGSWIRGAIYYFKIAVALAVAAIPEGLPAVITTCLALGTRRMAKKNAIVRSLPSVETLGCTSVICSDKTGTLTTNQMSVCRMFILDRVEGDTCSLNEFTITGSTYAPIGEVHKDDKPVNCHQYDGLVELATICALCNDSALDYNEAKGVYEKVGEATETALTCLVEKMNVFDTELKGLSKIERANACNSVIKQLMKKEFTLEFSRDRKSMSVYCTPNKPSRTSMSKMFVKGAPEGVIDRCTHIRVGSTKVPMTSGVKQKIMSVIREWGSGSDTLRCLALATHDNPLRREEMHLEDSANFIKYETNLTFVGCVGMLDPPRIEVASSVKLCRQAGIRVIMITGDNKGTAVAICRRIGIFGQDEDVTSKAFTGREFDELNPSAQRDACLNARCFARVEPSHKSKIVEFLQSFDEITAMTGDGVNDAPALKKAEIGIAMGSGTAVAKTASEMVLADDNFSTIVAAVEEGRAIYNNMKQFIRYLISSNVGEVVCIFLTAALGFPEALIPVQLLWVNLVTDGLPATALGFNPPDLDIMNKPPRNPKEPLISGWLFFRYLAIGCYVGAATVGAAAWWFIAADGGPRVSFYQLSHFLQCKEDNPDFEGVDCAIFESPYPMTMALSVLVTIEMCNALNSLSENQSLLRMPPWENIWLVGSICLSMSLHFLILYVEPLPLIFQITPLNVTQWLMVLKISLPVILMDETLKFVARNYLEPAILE
Chain of SERCA2a-PLB complex (GFP-SERCA2a / RFP-PLB in HEK293 cells) (P26678 whole entry C36A/C41F/C46A): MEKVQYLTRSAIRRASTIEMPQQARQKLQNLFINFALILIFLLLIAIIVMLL

| Compound | effect on Ca-dependent decrease in FRET [1] | EC50 ([2]; SSR) | Vmax @ 30 µM ([2]; SSR, 30 µM compound) | ΔVmax @ 30 µM ([2]; SSR, 30 µM compound, relative to DMSO control) | EC50 ([2]; SSR, listed as ivermectin) | decrease of Vmax ([2]; skeletal SR) | Ca-ATPase activity inhibited [3] |
| --- | --- | --- | --- | --- | --- | --- | --- |
| C/C=C(/C)C(=O)O[C@H]1C(C)=C2[C@H]([C@@H]1OC(=O)CCCCCCC)[C@@](C)(OC(C)=O)C[C@H](OC(=O)CCC)[C@@]1(O)[C@H]2OC(=O)[C@@]1(C)O [thapsigargin] | prevents the Ca-dependent decreases in FRET | – | – | – | – | – | – |
| Ivermectin | – | 5.75 µM | 0.32 i.u. | -87.6% | 5.8 µM | 88% | 90% |
